# Source: patent EP0314302A2, “Herbicidal o-carbomethoxy-sulfonylureas” (E.I. DU PONT DE NEMOURS AND COMPANY, priority 1987, dated 1989)
# Key:
# [1] = tested on: Guinea Grass; assay: Test 3 postemergence weed control; assay type: in vivo, Panicum maximum; details: 32 g/ha, scale 0-100
# Experimental: (§1) Seeds of crabgrass (Digitaria spp), guinea grass (Panicum maximum) and narrowleaf panicum (P. maximum) were planted in 15-cm plastic pots. The weeds were treated postemergence with compound I, formulated in a non-phytotoxic solvent, when the plants had 3 or more leaves and had tillered. The degree of weed control was visually rated 17 days after compound application (DAT). Control ratings were based on a scale of 0 to 100 where 0 = no effect, 20 = minimal control and 100 = complete control.
# [2] = tested on: Narrowleaf panicum; assay: Test 3 postemergence weed control; assay type: in vivo, P. maximum; details: 32 g/ha, scale 0-100
# Experimental: as §1
# [3] = tested on: Goldenrod; assay: Test 4 plantation crop weeds, postemergence; assay type: in vivo, Solidago spp; details: Table 6, profusely branching, scale 0-100
# Excerpt: The object of this test was to evaluate the efficacy of the compound of this invention on weeds that infest some plantation crops at different growth stages of the weeds. Asystasia intrusa, Mikania cordata, goldenrod Solidago spp, Boston fern Nephrolepis exalata, and lalang Imparata cylindrica were planted in 15-cm plastic pots. Plants were sprayed postemergence with Compound I in a non-phytotoxic solvent. The Asystasia plants ranged in growth from 4 leaves to 9 leaves and very branched, Mikania had 6 leaves to vining, the goldenrod was branching and the Boston fern was growing vigorously. The degree of weed control was visually rated 20 to 24 days after treatment (DAT). Control ratings are based on the scale of 0 to 100 where 0 = no effect, 20 = minimal control and 100 = complete control. Variations in the results of the tests could be due to the fact that the tests were run at different times of the year or due to the stage of growth of the weeds.
# [4] = tested on: Large Crabgrass; assay: Test 5 sugarcane injury and weed control, postemergence; assay type: in vivo, Digitaria sanguinalis; details: scale 0-100
# Experimental: Sugarcane (Saccharum spp.) cuttings which had been pre-sprouted were planted in 15-cm plastic pots. Narrowleaf panicum (Panicum maximum), large crabgrass (Digitaria sanguinalis), guineagrass (P. maximum) and itchgrass (Rottboellia exaltata) were seeded in individual 15-cm plastic pots.
# The pots were treated postemergence when the plants had 3 to 4 leaves with 2 to 3 tillers with Compound I formulated in a non-phytotoxic carrier made up of acetone-humectant-water-surfactant (22:1:1:0.05 v/v). The degree of crop injury and weed control was visually rated 27 days after treatment (DAT). Plant injury ratings are based on the scale of 0 to 100 where 0 = no effect, 20 = minimal injury and 100 = complete control.
# [5] = tested on: Wild mustard; assay: Test 7 postemergence; assay type: in vivo; details: scale 0-100
# [6] = tested on: Mikanis cordata; assay: Test 9 postemergence; assay type: in vivo, Mikania cordata; details: scale 0-100
# Experimental: (§2) Plastic windowsill pots containing planting medium were seeded with bahiagrass, bindweed (Convolvulus spp), guinea grass (Panicum maximum), large crabgrass (Digitaria sanguinalis) and pigweed (Amaranthus spp). Individual 15-cm plastic pots contained sandbur (Cenchrus echinatus), Mikania cordata, Boston fern (Nephrolepis exalata), quackgrass (Agropyron repens), elephantgrass (Pennisetum purpureum) and sowthistle (Sonchus spp) plants.
# (§3) Plants were treated postemergence with Compound I formulated in a non-phytotoxic solvent. Plants were visually rated 22 days after treatment (DAT). Injury and weed control ratings were based on the scale of 0 to 100 where 0 = no effect, 20 = minimal control and 100 = complete control.
# [7] = tested on: Sowthistle; assay: Test 9 postemergence; assay type: in vivo, Sonchus spp; details: scale 0-100
# Experimental: as §2, §3
# [8] = tested on: Quackgrass; assay: Test 9 postemergence; assay type: in vivo, Agropyron repens; details: scale 0-100
# Experimental: as §2, §3
# [9] = tested on: Large Crabgrass; assay: Test 9 postemergence; assay type: in vivo, Digitaria sanguinalis; details: 16 g/ha, scale 0-100
# Experimental: as §2, §3
# [10] = tested on: Wild radish; assay: Test 10 postemergence safety to crops and weed control; assay type: in vivo, Raphanus raphanistrum; details: 16 g/ha, scale 0-100
# Experimental: (§4) The object of these tests was to evaluate the compound of this invention for postemergence safety to crops and weed control. Seedling and budded Macedine grapes were grown in 11.4-cm pots. Flax, green foxtail (Setaria viridis), "Morex" barley, wild oats (Avena fatua), "Era" wheat, annual ryegrass (Lolium multiflorum), wild radish (Raphanus raphanistrum), rape, sunflower, chickweed (Stellaria media) and wild buckwheat (Polygonum convolvulus) were seeded in windowsill pots.
# (§5) The plants were sprayed postemergence with Compound I in a non-phytotoxic solvent. Plants were visually rated 15 and 27 days after treatment (DAT). Injury and weed control ratings were based on the scale of 0 to 100 where 0 = no effect, 20 minimal control and 100 = complete control.
# [11] = tested on: Wild buckwheat; assay: as above; assay type: in vivo, Polygonum convolvulus; details: 16 g/ha, scale 0-100
# Experimental: as §4, §5
# [12] = tested on: Citrus; assay: Test 11 citrus pots, preemergence to the weeds; assay type: in vivo; details: Preemergence 32 g/ha; 0.25% X-77 surfactant; scale 0-100
# Experimental: (§6) Budded citrus seedlings were planted in 30-liter plastic pots which were also seeded with sandbur, guineagrass, narrowleaf panicum, common ragweed, yellow nutsedge, purple nutsedge and bindweed. Compound I was applied preemergence and postemergence to the weeds. Treatments were sprayed to simulate the trunk-to-trunk herbicide application method used in some citrus groves. The compound was also applied postemergence to weeds grown in windowsill flats. The flats were filled with planting medium and seeded with morningglory (Ipomoea spp.). purple nutsedge (Cyperus rotundus), pigweed (Amaranthus spp.), bindweed (Convolvulus spp.), narrowleaf panicum (Panicum maximum), common ragweed (Ambrosia artemisiifolia), sandbur (Cenchrus echinatus), itchgrass (Rottboellia exaltata), johnsongrass (Sorghum halepense), guineagrass (Panicum maximum), smooth crabgrass (Digitaria ischaemum), broadleaf signalgrass (Brachiaria platyphylla), bermudagrass (Cynodon dactylon), goosegrass (Eleusine indica), large crabgrass (Digitaria sanguinalis) and yellow nutsedge (Cyperus esculentus).
# (§7) The compound was formulated and sprayed with 0.25% X-77 surfactant in water. Plants were visually rated 21 and 29 days after treatment and compared with appropriate controls. Injury ratings were based on the scale of 0 to 100, where 0 indicates no effect, 20 indicates minimum effect and 100 indicates complete control. […]
# [13] = tested on: Guineagrass; assay: Test 11 citrus pots, postemergence to the weeds; assay type: in vivo, Panicum maximum; details: Postemergence 32 g/ha, 0.25% X-77 surfactant, scale 0-100
# Experimental: as §6, §7
# [14] = tested on: Narrowleaf panicum; assay: Test 11 citrus pots, postemergence to the weeds; assay type: in vivo, Panicum maximum; details: Postemergence 32 g/ha, 0.25% X-77 surfactant, scale 0-100
# Experimental: as §6, §7
# [15] = tested on: Guineagrass; assay: Test 11 windowsill flats, postemergence; assay type: in vivo, Panicum maximum; details: Postemergence 32 g/ha, 0.25% X-77 surfactant, scale 0-100
# Experimental: as §6, §7
# [16] = tested on: Narrowleaf panicum; assay: Test 11 windowsill flats, postemergence; assay type: in vivo, Panicum maximum; details: Postemergence 32 g/ha, 0.25% X-77 surfactant, scale 0-100
# Experimental: as §6, §7
smiles,measurement,setting,value
"COC(=O)c1cccnc1S(=O)(=O)NC(=O)Nc1nc(OC)cc(OC)n1 [Compound I, 2-[[(4,6-dimethoxypyrimidin-2-yl)aminocarbonyl]aminosulfonyl]-3-pyridinecarboxylic acid, methyl ester]",Control Rating 17 DAT,[1],70
same,Control Rating 17 DAT,[2],90
same,Control Rating 20 DAT,[3]; 16 g/ha,30
same,Control Rating 20 DAT,[3]; 32 g/ha,30
same,Plant Injury Rating 27 DAT,[4]; 8 g/ha,30
same,Plant Injury Rating 27 DAT,[4]; 16 g/ha,60
same,Plant Injury Rating 27 DAT,[4]; 32 g/ha,80
same,Plant Injury Rating 27 DAT,[4]; 64 g/ha,100
same,Plant Injury Rating 18 DAT,[5]; 16 g/ha,100
same,Plant Injury Rating 18 DAT,[5]; 32 g/ha,100
same,Plant Injury Rating 22 DAT,[6]; 8 g/ha,0
same,Plant Injury Rating 22 DAT,[6]; 16 g/ha,0
same,Plant Injury Rating 22 DAT,[6]; 32 g/ha,30
same,Plant Injury Rating 22 DAT,[7]; 8 g/ha,60
same,Plant Injury Rating 22 DAT,[7]; 16 g/ha,70
same,Plant Injury Rating 22 DAT,[7]; 32 g/ha,100
same,Plant Injury Rating 22 DAT,[8]; 8 g/ha,70
same,Plant Injury Rating 22 DAT,[8]; 16 g/ha,90
same,Plant Injury Rating 22 DAT,[8]; 32 g/ha,100
same,Plant Injury Rating 22 DAT,[9],60
same,Plant Injury Rating 15 DAT,[10],100
same,Plant Injury Rating 15 DAT,[11],100
same,Injury ratings,[12],0
same,Injury ratings,[13],100
same,Injury ratings,[14],90
same,Injury ratings,[15],100
same,Injury ratings,[16],90
